# Test results: BigSolDB 2.1
compound,measurement,setting,value
CN(C)Cc1c[nH]c2ccccc12,solubility (mole fraction),"in 1,4-dioxane, 288.15 K",0.0465
same,solubility (mole fraction),"in 1,4-dioxane, 293.15 K",0.0511
same,solubility (mole fraction),"in 1,4-dioxane, 298.15 K",0.0562
same,solubility (mole fraction),"in 1,4-dioxane, 303.15 K",0.0623
same,solubility (mole fraction),"in 1,4-dioxane, 308.15 K",0.0684
same,solubility (mole fraction),"in 1,4-dioxane, 313.15 K",0.0746
same,solubility (mole fraction),"in acetone, 273.15 K",0.0231
same,solubility (mole fraction),"in acetone, 278.15 K",0.026
same,solubility (mole fraction),"in acetone, 283.15 K",0.0289
same,solubility (mole fraction),"in acetone, 288.15 K",0.0327
same,solubility (mole fraction),"in acetone, 293.15 K",0.0364
same,solubility (mole fraction),"in acetone, 298.15 K",0.0402
same,solubility (mole fraction),"in acetone, 303.15 K",0.0463
same,solubility (mole fraction),"in acetone, 308.15 K",0.0523
same,solubility (mole fraction),"in acetone, 313.15 K",0.0584
same,solubility (mole fraction),"in acetonitrile, 273.15 K",0.00447
same,solubility (mole fraction),"in acetonitrile, 278.15 K",0.00517
same,solubility (mole fraction),"in acetonitrile, 283.15 K",0.00621
same,solubility (mole fraction),"in acetonitrile, 288.15 K",0.00736
same,solubility (mole fraction),"in acetonitrile, 293.15 K",0.00858
same,solubility (mole fraction),"in acetonitrile, 298.15 K",0.00998
same,solubility (mole fraction),"in acetonitrile, 303.15 K",0.0116
same,solubility (mole fraction),"in acetonitrile, 308.15 K",0.0133
same,solubility (mole fraction),"in acetonitrile, 313.15 K",0.0151
same,solubility (mole fraction),"in ethanol, 273.15 K",0.0207
same,solubility (mole fraction),"in ethanol, 278.15 K",0.023
same,solubility (mole fraction),"in ethanol, 283.15 K",0.0254
same,solubility (mole fraction),"in ethanol, 288.15 K",0.0283
same,solubility (mole fraction),"in ethanol, 293.15 K",0.0317
same,solubility (mole fraction),"in ethanol, 298.15 K",0.0355
same,solubility (mole fraction),"in ethanol, 303.15 K",0.0399
same,solubility (mole fraction),"in ethanol, 308.15 K",0.0449
same,solubility (mole fraction),"in ethanol, 313.15 K",0.0508
same,solubility (mole fraction),"in ethyl acetate, 273.15 K",0.0165
same,solubility (mole fraction),"in ethyl acetate, 278.15 K",0.0193
same,solubility (mole fraction),"in ethyl acetate, 283.15 K",0.0219
same,solubility (mole fraction),"in ethyl acetate, 288.15 K",0.0253
same,solubility (mole fraction),"in ethyl acetate, 293.15 K",0.029
same,solubility (mole fraction),"in ethyl acetate, 298.15 K",0.0327
same,solubility (mole fraction),"in ethyl acetate, 303.15 K",0.0377
same,solubility (mole fraction),"in ethyl acetate, 308.15 K",0.0428
same,solubility (mole fraction),"in ethyl acetate, 313.15 K",0.0479
same,solubility (mole fraction),"in isopropanol, 273.15 K",0.013
same,solubility (mole fraction),"in isopropanol, 278.15 K",0.0153
same,solubility (mole fraction),"in isopropanol, 283.15 K",0.0178
same,solubility (mole fraction),"in isopropanol, 288.15 K",0.0207
same,solubility (mole fraction),"in isopropanol, 293.15 K",0.0235
same,solubility (mole fraction),"in isopropanol, 298.15 K",0.0268
same,solubility (mole fraction),"in isopropanol, 303.15 K",0.0305
same,solubility (mole fraction),"in isopropanol, 308.15 K",0.0341
same,solubility (mole fraction),"in isopropanol, 313.15 K",0.0377
same,solubility (mole fraction),"in methanol, 273.15 K",0.0274
same,solubility (mole fraction),"in methanol, 278.15 K",0.0293
same,solubility (mole fraction),"in methanol, 283.15 K",0.0315
same,solubility (mole fraction),"in methanol, 288.15 K",0.0341
same,solubility (mole fraction),"in methanol, 293.15 K",0.0371
same,solubility (mole fraction),"in methanol, 298.15 K",0.0417
same,solubility (mole fraction),"in methanol, 303.15 K",0.0474
same,solubility (mole fraction),"in methanol, 308.15 K",0.0537
same,solubility (mole fraction),"in methanol, 313.15 K",0.0615
same,solubility (mole fraction),"in n-butanol, 273.15 K",0.0305
same,solubility (mole fraction),"in n-butanol, 278.15 K",0.0337
same,solubility (mole fraction),"in n-butanol, 283.15 K",0.0369
same,solubility (mole fraction),"in n-butanol, 288.15 K",0.0416
same,solubility (mole fraction),"in n-butanol, 293.15 K",0.0464
same,solubility (mole fraction),"in n-butanol, 298.15 K",0.0512
same,solubility (mole fraction),"in n-butanol, 303.15 K",0.0565
same,solubility (mole fraction),"in n-butanol, 308.15 K",0.0617
same,solubility (mole fraction),"in n-butanol, 313.15 K",0.067
same,solubility (mole fraction),"in n-octanol, 273.15 K",0.0111
same,solubility (mole fraction),"in n-octanol, 278.15 K",0.0132
same,solubility (mole fraction),"in n-octanol, 283.15 K",0.0158
same,solubility (mole fraction),"in n-octanol, 288.15 K",0.0187
same,solubility (mole fraction),"in n-octanol, 293.15 K",0.0218
same,solubility (mole fraction),"in n-octanol, 298.15 K",0.025
same,solubility (mole fraction),"in n-octanol, 303.15 K",0.0284
same,solubility (mole fraction),"in n-octanol, 308.15 K",0.0319
same,solubility (mole fraction),"in n-octanol, 313.15 K",0.036
same,solubility (mole fraction),"in n-propanol, 273.15 K",0.0284
same,solubility (mole fraction),"in n-propanol, 278.15 K",0.0315
same,solubility (mole fraction),"in n-propanol, 283.15 K",0.0346
same,solubility (mole fraction),"in n-propanol, 288.15 K",0.0381
same,solubility (mole fraction),"in n-propanol, 293.15 K",0.0415
same,solubility (mole fraction),"in n-propanol, 298.15 K",0.046
same,solubility (mole fraction),"in n-propanol, 303.15 K",0.0515
same,solubility (mole fraction),"in n-propanol, 308.15 K",0.0581
same,solubility (mole fraction),"in n-propanol, 313.15 K",0.0629
same,solubility (mole fraction),"in toluene, 273.15 K",0.00345
same,solubility (mole fraction),"in toluene, 278.15 K",0.00408
same,solubility (mole fraction),"in toluene, 283.15 K",0.00456
same,solubility (mole fraction),"in toluene, 288.15 K",0.00537
same,solubility (mole fraction),"in toluene, 293.15 K",0.00647
same,solubility (mole fraction),"in toluene, 298.15 K",0.00765
same,solubility (mole fraction),"in toluene, 303.15 K",0.00905
same,solubility (mole fraction),"in toluene, 308.15 K",0.0107
same,solubility (mole fraction),"in toluene, 313.15 K",0.0126
